EC50, in vitro bioactivity and Kd data for four substances are collected here from patent US7459522B2 (Affymax, Inc., priority 1999, dated 2008).

Bridge positions count the residues as written; N and C are the ends. Square brackets hold non-standard residues; d marks the D form. Ends that are not written are not given here. I, II: the chains in the order shown. 1Nal = N[C@@H](Cc1cccc2ccccc12)C(=O)O; βAla = NCCC(=O)O

The target in one test is T1, huEPOR (Homo sapiens, UniProt P19235).
T1 construct: expressed in transfected cells; host or cells: Ba/F3 (murine pro-B line, own knowledge) carrying huEPOR
T1 sequence (P19235 25-508): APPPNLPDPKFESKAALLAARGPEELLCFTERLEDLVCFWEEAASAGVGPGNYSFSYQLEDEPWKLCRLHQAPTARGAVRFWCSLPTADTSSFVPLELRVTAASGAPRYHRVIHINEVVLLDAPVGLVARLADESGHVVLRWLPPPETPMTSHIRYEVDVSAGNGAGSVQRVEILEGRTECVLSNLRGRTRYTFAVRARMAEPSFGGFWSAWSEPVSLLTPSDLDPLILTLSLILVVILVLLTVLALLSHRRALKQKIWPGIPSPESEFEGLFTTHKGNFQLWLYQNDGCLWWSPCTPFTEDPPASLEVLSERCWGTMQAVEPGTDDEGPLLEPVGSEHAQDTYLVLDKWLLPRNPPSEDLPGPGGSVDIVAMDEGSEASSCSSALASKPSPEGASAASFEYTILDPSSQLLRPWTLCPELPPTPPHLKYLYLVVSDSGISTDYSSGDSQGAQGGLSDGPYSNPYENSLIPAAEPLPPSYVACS
The test is described as follows: Ba/F3-huEPOR cell proliferation assay. The class given is cell-based. The note with it: for EC50: concentration required to produce 50% of the maximal activity obtained with recombinant erythropoietin. The source says: The protocol for each assay is described in Wrighton et al. (1997) Nature Biotechnology 15:1261-1265, and in U.S. Pat. Nos. 5,773,569 and 5,830,851, both to Wrighton et al. and cited earlier herein.

A further test addresses EPO receptor. To be noted: single class of binding sites, 300 to 600 per cell surface; cited from earlier work.

For “I: GGTYSCHFGPLT[1Nal]VCRPQGGK-NH2 / II: GGTYSCHFGPLT[1Nal]VCRPQGG (amide I:21-II:C; cysteines drawn unpaired) [Example 1]”, the EC50 on huEPOR came to 6 nM.
On to “I: GGTYSCHFGPLT[1Nal]VCRPQGGK-NH2 / II: GGTYSCHFGPLT[1Nal]VCRPQGG (disulfide I:6-I:15, II:6-II:15; amide I:21-II:C) [Example 6]”, for which, at huEPOR (FIG. 5, Isomer 1 compared with Isomer 2, Isomer 3 and the other compounds), the in vitro bioactivity entry is on record as “noticeably higher”.
“I: GGTYSCHFGPLT[1Nal]VCRPQGG[βAla]K-NH2 / II: GGTYSCHFGPLT[1Nal]VCRPQGG[βAla] (amide I:22-II:C; cysteines drawn unpaired) [Example 3]”: the EC50 at huEPOR is 5 nM.
Take Erythropoietin [EPO]: on EPO receptor, the Kd was ~0.8 nM.

As a reminder, the EC50 is the concentration giving half of the maximal effect. What is called Kd is the constant that tells how readily two partners part at equilibrium.
